Measurements: ChEMBL document CHEMBL1129270, “Aza-peptide analogs as potent human immunodeficiency virus type-1 protease inhibitors with oral bioavailability” (J Med Chem, 1996)

Tests used:
[1] = molecular target: Human immunodeficiency virus type 1 protease (Human immunodeficiency virus 1) (UniProt Q72874); assay: In vivo for antiviral activity (ED90) against HIV-1 protease.; type: organism-based
[2] = molecular target: Human immunodeficiency virus type 1 protease (Human immunodeficiency virus 1) (UniProt Q72874); assay: In vivo antiviral activity (IC50) against HIV-1 protease.; type: organism-based
[3] = Plasma Concentration after 120 min of oral administration to mice; type: ADME, organism-based; conditions: mouse
[4] = Plasma Concentration after 30 min of oral administration to mice; type: ADME, organism-based; conditions: mouse
[5] = Plasma Concentration after 90 min of oral administration to mice; type: ADME, organism-based; conditions: mouse
[6] = Compound was tested in vivo for antiviral activity (C120/ED50) against HIV Protease.; type: functional
Mus musculus (mouse) = assay: Plasma Concentration after 60 min of oral administration to mice

Compound | ED90 [1] [nM] | ED50 [2] [nM] | concentration at 2 h [3] [nM] | concentration at 0.5 h [4] [nM] | concentration at 1.5 h [5] [nM] | C120/ED50 [6] | concentration at 1 h (Mus musculus (mouse)) [nM]
COC(=O)N[C@H](C(=O)N[C@@H](Cc1ccccc1)C(O)CN(Cc1ccc(C(F)(F)F)cc1)NC(=O)[C@@H](NC(=O)OC)C(C)C)C(C)C (some centres undefined) | 100 | 17 |  |  |  |  | 
CCOC(=O)NC(C(=O)N[C@@H](Cc1ccccc1)[C@H](O)CN(CC1CCCCC1)NC(=O)C(NC(=O)OC)C(C)C)C(C)C (some centres undefined) | 1000 | 72 | 1400 | 3200 | 1200 | 19 | 400
CCOC(=O)NC(C(=O)N[C@@H](Cc1ccccc1)[C@H](O)CN(CC1CCCCC1)NC(=O)C(NC(=O)OCC)C(C)C)C(C)C (some centres undefined) | 1000 | 55 | 8700 | 6700 | 7800 | 158 | 6700
CCOC(=O)NC(C(=O)NN(CC1CCCCC1)C[C@@H](O)[C@H](Cc1ccccc1)NC(=O)C(NC(=O)OCCOC)C(C)C)C(C)C (some centres undefined) | 100 | 24 | < 200 | < 200 | < 200 |  | < 200
CCOC(=O)NC(C(=O)NN(CC1CCCCC1)C[C@@H](O)[C@H](Cc1ccccc1)NC(=O)C(NC(=O)OC)C(C)C)C(C)C (some centres undefined) | 100 | 29 | 6000 | 3800 | 5800 | 207 | 2200
COC(=O)N[C@H](C(=O)N[C@@H](Cc1ccccc1)C(O)CN(Cc1ccc(F)cc1)NC(=O)[C@@H](NC(=O)OC)C(C)C)C(C)C (some centres undefined) | 1000 | 49 |  |  |  |  | 
COC(=O)NC(C(=O)NN(Cc1ccc(OC)cc1)C[C@H](O)[C@H](Cc1ccccc1)NC(=O)[C@H](CC(N)=O)NC(=O)c1ccc2ccccc2n1)C(C)C (some centres undefined) | 1000 | 118 |  |  |  |  | 
COC(=O)N[C@H](C(=O)N[C@@H](Cc1ccccc1)C(O)CN(Cc1ccc(C#N)cc1)NC(=O)[C@@H](NC(=O)OC)C(C)C)C(C)C (some centres undefined) | 1000 | 68 |  |  |  |  | 
COC(=O)N[C@H](C(=O)N[C@@H](Cc1ccccc1)C(O)CN(Cc1cccs1)NC(=O)[C@@H](NC(=O)OC)C(C)C)C(C)C (some centres undefined) | 100 | 17 |  |  |  |  | 
COC(=O)NC(C(=O)NN(CC1CCCCC1)C[C@H](O)[C@H](Cc1ccccc1)NC(=O)[C@H](CC(N)=O)NC(=O)c1ccc2ccccc2n1)C(C)C (some centres undefined) | 100 | 18 |  |  |  |  | 
COCCOC(=O)NC(C(=O)NN(CC1CCCCC1)C[C@@H](O)[C@H](Cc1ccccc1)NC(=O)C(NC(=O)OC)C(C)C)C(C)C (some centres undefined) | 100 | 28 | 3100 | 1000 | 3000 | 111 | 2800
COC(=O)N[C@H](C(=O)N[C@@H](Cc1ccccc1)[C@H](O)CN(CC1CCCCC1)NC(=O)[C@@H](NC(C)=O)C(C)C)C(C)C | 1000 | 300 |  |  |  |  | 
COCCOCCOC(=O)NC(C(=O)N[C@@H](Cc1ccccc1)[C@H](O)CN(CC1CCCCC1)NC(=O)C(NC(=O)OCCOCCOC)C(C)C)C(C)C (some centres undefined) | 10000 | 41 |  |  |  |  | 
COC(=O)N[C@H](C(=O)N[C@@H](Cc1ccccc1)C(O)CN(Cc1ccc(OC)cc1)NC(=O)[C@@H](NC(=O)OC)C(C)C)C(C)C (some centres undefined) | 30 | 9 | < 200 | < 200 | < 200 |  | 
COC(=O)N[C@H](C(=O)N[C@@H](Cc1ccccc1)C(O)CN(CC(C)C)NC(=O)[C@@H](NC(=O)OC)C(C)C)C(C)C (some centres undefined) | 1000 | 23 |  |  |  |  | 
COC(=O)N[C@H](C(=O)N[C@@H](Cc1ccccc1)C(O)CN(CC1CCCCC1)NC(=O)[C@@H](NC(=O)OC)C(C)C)C(C)C (some centres undefined) | 100 | 18 |  |  |  |  | 
CCOC(=O)NC(C(=O)NN(CC1CCCCC1)C[C@H](O)[C@H](Cc1ccccc1)NC(=O)[C@H](CC(N)=O)NC(=O)c1ccc2ccccc2n1)C(C)C (some centres undefined) | 30 | 9.4 |  |  |  |  | 
CC(C)(C)NC(=O)[C@@H]1C[C@@H]2CCCC[C@@H]2CN1C[C@@H](O)[C@H](Cc1ccccc1)NC(=O)[C@H](CC(N)=O)NC(=O)c1ccc2ccccc2n1 | 10 | 4.5 |  |  |  |  | 
COC(=O)NC(C(=O)NN(CC(C)C)C[C@H](O)[C@H](Cc1ccccc1)NC(=O)[C@H](CC(N)=O)NC(=O)c1ccc2ccccc2n1)C(C)C (some centres undefined) | 300 | 63 |  |  |  |  | 
COC(=O)N[C@H](C(=O)N[C@@H](Cc1ccccc1)C(O)CN(CCC(C)C)NC(=O)[C@@H](NC(=O)OC)C(C)C)C(C)C (some centres undefined) | 30 | 2.7 | 300 | < 200 | 400 | 111 | 600
CCOC(=O)NC(C(=O)N[C@@H](Cc1ccccc1)[C@H](O)CN(CC1CCCCC1)NC(=O)C(NC(=O)OCCOC)C(C)C)C(C)C (some centres undefined) | 100 | 15 | 1500 | 1000 | 1000 | 100 | 2200
COC(=O)N[C@H](C(=O)N[C@@H](Cc1ccccc1)C(O)CN(Cc1ccc(C)cc1)NC(=O)[C@@H](NC(=O)OC)C(C)C)C(C)C (some centres undefined) | 30 | 6.2 | < 200 | < 200 | < 200 |  | < 200
COC(=O)N[C@H](C(=O)N[C@@H](Cc1ccccc1)C(O)CN(Cc1ccc(OC)c(OC)c1OC)NC(=O)[C@@H](NC(=O)OC)C(C)C)C(C)C (some centres undefined) | 100 | 28 |  |  |  |  | 
COCCOC(=O)NC(C(=O)NC(Cc1ccccc1)C(O)CN(CC1CCCCC1)NC(=O)C(NC(=O)OC)C(C)C)C(C)C (centres undefined) | 100 | 14 | < 500 | < 500 | < 500 |  | < 500
CC(C)CN(C[C@H](O)[C@H](Cc1ccccc1)NC(=O)[C@H](CC(N)=O)NC(=O)c1ccc2ccccc2n1)NC(=O)C(NC(=O)OCc1ccccc1)C(C)C (some centres undefined) | 30 | 12 |  |  |  |  | 
COc1ccc(CN(C[C@H](O)[C@H](Cc2ccccc2)NC(=O)[C@H](CC(N)=O)NC(=O)c2ccc3ccccc3n2)NC(=O)C(NC(=O)OCc2ccccc2)C(C)C)cc1 (some centres undefined) | 30 | 15 |  |  |  |  | 
COC(=O)N[C@H](C(=O)N[C@@H](Cc1ccccc1)C(O)CN(Cc1ccc(O)cc1)NC(=O)[C@@H](NC(=O)OC)C(C)C)C(C)C (some centres undefined) | 1000 | 150 |  |  |  |  | 
C=CCOC(=O)NC(C(=O)N[C@@H](Cc1ccccc1)[C@H](O)CN(CC1CCCCC1)NC(=O)C(NC(=O)OCC=C)C(C)C)C(C)C (some centres undefined) | 1000 | 83 | 1000 | 800 | 900 | 12 | 1200
COCCOC(=O)NC(C(=O)N[C@@H](Cc1ccccc1)[C@H](O)CN(CC1CCCCC1)NC(=O)C(NC(=O)OCCOC)C(C)C)C(C)C (some centres undefined) | 300 | 79 | < 500 | 2700 | < 500 |  | 1100
CC(C)C(NC(=O)OCc1ccccc1)C(=O)NN(CC1CCCCC1)C[C@H](O)[C@H](Cc1ccccc1)NC(=O)[C@H](CC(N)=O)NC(=O)c1ccc2ccccc2n1 (some centres undefined) | 30 | 9.8 | 1100 | 300 | 800 | 73 | 200
